Measured values as given in ChEMBL document CHEMBL4387776, “Discovery of novel 9H-purin derivatives as dual inhibitors of HDAC1 and CDK2” (Bioorg Med Chem Lett, 2019).

Experiments:
A549 = assay: Antiproliferative activity against human A549 cells measured after 72 hrs by CCK8 assay; type: functional, cell-based; conditions: A549, 72 h
CDK2/Cyclin A2 = CDK2/Cyclin A2 (Homo sapiens, UniProt P24941); assay: Inhibition of wild-type human N-terminal GST-tagged CDK2/cycA2 expressed in Sf21 insect cells using FAM-labelled substrate preincubated for 10 mins followed by substrate addition and measured after 30 mins by fluorescence assay
CAL-148 = assay: Antiproliferative activity against human CAL148 cells measured after 72 hrs by CCK8 assay; type: functional, cell-based; conditions: CAL-148, 72 h
Histone deacetylase 1 = Histone deacetylase 1 (Homo sapiens, UniProt Q13547); assay: Inhibition of recombinant human full-length C-terminal FLAG-tagged HDAC1 expressed in baculovirus expression system using Ac-peptide-AMC as substrate preincubated for 15 mins followed by substrate addition by fluorescence assay
Sequence of Histone deacetylase 1 (Q13547 whole entry): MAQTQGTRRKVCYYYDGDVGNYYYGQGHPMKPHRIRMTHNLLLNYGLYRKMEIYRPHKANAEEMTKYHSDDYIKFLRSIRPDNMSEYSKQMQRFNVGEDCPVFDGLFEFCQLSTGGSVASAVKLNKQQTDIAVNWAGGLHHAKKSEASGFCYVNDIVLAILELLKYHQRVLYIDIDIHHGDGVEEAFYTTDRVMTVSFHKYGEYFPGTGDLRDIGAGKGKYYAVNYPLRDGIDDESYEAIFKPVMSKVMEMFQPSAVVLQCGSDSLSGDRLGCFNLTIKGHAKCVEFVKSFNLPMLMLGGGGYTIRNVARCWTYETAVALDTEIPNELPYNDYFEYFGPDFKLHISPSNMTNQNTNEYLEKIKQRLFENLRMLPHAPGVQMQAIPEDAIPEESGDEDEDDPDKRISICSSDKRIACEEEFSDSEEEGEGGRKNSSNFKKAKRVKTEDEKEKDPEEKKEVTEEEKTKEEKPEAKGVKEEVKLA

HepG2 = assay: Antiproliferative activity against human HepG2 cells measured after 72 hrs by CCK8 assay; type: functional, cell-based; conditions: HepG2, 72 h

| IC50 (A549) | IC50 (CDK2/Cyclin A2) | IC50 (Histone deacetylase 1) | IC50 (HepG2) | SMILES | IC50 (CAL-148) |
| --- | --- | --- | --- | --- | --- |
| 1260 nM | 127 nM | 7 nM | 220 nM | CC(C)n1cnc2c(NCc3cccc(/C=C/C(=O)NO)c3)nc(N3CCOCC3)nc21 | 390 nM |
| 1490 nM | 56 nM | 5.8 nM | 770 nM | CCn1cnc2c(NCc3cccc(/C=C/C(=O)NO)c3)nc(N3CCOCC3)nc21 | 1140 nM |
| 20 nM | – | – | < 100 nM | Cc1[nH]c2ccccc2c1CCNCc1ccc(/C=C/C(=O)NO)cc1 [PANOBINOSTAT] | < 100 nM |

| SMILES | IC50 (A549) | IC50 (CDK2/Cyclin A2) | IC50 (Histone deacetylase 1) | IC50 (HepG2) | IC50 (CAL-148) |
| --- | --- | --- | --- | --- | --- |
| CC[C@H](CO)Nc1nc(NCc2ccccc2)c2ncn(C(C)C)c2n1 [SELICICLIB] | > 10000 nM | – | – | 15800 nM | > 10000 nM |
